In BindingDB's records for patent US12264155 (Repare Therapeutics, 2025):

Molecular target: Serine/threonine-protein kinase ATR (Homo sapiens, UniProt Q13535)
Test: ATR/ATRIP Enzymatic Assay
Excerpt: Detection of ATR kinase activity utilized the AlphaScreen system to measure the phosphorylation of the substrate protein p53.

Sequence of Serine/threonine-protein kinase ATR (Q13535 whole entry): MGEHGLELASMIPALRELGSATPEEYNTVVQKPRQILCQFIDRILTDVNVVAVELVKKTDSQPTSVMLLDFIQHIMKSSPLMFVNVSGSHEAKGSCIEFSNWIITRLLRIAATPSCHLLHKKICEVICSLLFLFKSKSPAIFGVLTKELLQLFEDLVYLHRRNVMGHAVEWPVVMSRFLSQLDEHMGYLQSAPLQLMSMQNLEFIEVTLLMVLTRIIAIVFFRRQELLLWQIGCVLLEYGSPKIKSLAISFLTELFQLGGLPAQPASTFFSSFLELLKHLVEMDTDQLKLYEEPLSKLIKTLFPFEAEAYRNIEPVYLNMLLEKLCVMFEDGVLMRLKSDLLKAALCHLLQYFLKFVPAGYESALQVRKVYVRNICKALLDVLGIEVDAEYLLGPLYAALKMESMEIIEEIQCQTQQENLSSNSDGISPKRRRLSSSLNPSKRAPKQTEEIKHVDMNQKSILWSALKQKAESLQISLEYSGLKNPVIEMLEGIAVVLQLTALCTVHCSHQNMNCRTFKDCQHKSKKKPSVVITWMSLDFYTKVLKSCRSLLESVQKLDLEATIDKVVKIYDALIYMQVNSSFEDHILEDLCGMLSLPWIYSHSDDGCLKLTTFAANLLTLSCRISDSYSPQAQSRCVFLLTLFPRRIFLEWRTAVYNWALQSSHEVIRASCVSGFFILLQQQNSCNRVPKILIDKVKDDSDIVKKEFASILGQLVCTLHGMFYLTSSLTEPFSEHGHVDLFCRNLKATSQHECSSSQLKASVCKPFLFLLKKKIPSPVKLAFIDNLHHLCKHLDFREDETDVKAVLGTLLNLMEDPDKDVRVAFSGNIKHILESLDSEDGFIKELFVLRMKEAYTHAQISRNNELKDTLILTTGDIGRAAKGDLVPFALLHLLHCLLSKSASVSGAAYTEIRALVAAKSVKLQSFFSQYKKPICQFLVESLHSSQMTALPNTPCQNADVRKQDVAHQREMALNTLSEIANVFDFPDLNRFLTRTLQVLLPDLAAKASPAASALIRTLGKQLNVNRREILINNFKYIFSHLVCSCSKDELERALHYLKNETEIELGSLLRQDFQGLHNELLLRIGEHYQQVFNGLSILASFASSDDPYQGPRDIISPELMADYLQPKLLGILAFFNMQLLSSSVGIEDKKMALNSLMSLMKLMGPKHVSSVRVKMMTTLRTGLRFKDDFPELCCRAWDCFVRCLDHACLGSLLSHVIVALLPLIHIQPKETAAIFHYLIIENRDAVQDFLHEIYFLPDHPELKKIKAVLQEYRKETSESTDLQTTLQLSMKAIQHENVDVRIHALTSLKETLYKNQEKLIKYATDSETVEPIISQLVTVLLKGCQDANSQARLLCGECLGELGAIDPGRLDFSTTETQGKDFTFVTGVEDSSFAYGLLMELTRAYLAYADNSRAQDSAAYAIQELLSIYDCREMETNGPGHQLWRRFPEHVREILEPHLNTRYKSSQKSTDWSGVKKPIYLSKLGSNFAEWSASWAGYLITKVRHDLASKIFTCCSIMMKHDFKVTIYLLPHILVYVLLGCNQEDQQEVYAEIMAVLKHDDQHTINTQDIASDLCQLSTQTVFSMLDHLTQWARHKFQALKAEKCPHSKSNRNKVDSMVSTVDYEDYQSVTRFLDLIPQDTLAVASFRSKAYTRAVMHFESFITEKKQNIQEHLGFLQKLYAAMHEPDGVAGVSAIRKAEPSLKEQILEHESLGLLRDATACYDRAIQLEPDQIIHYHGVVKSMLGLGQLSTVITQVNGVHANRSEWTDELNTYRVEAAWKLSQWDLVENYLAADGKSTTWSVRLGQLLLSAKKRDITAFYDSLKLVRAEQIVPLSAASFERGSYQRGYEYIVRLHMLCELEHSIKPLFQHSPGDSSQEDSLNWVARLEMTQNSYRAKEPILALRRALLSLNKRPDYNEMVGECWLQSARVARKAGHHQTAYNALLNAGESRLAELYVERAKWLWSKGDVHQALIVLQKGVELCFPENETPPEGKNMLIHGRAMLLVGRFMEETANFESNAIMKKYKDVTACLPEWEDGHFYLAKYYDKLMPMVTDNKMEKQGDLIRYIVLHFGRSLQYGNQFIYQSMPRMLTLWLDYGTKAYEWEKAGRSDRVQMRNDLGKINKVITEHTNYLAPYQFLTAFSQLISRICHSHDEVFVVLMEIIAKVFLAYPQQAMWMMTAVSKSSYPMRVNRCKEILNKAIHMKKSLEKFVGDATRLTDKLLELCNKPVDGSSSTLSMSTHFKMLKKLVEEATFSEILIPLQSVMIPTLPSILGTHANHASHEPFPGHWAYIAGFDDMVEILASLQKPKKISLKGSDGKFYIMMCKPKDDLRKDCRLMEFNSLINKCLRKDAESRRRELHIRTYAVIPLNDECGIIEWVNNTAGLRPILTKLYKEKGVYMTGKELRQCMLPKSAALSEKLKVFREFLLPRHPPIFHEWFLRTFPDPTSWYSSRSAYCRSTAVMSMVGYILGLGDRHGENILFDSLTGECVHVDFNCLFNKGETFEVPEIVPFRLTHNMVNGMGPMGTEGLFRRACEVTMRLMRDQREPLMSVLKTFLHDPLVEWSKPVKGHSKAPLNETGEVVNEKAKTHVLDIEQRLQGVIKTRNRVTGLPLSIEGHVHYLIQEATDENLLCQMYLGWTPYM

**Q.** C[C@@H]1COCCN1c1cc(N2CCOC2=O)c2ccn(-c3cc[nH]n3)c2n1 [US12264155, Compound 26] was tested. Which IC50 did it give?
**A.** 860 nM

**Q.** Which IC50 does the source give for C[C@@H]1COCCN1c1cc(OCC(F)(F)F)c2cnn(-c3cc[nH]n3)c2n1 [US12264155, Compound 55] here?
**A.** 13 nM

**Q.** Which IC50 does the source give for C[C@@H]1COCCN1c1cc(C2(O)CCC3(CCC3)CC2)c2cnn(-c3cc[nH]n3)c2n1 [US12264155, Compound 58] here?
**A.** 6 nM

**Q.** With C[C@@H]1COCCN1c1cc(C(C)(C)C#N)c2c(Br)nn(-c3cc[nH]n3)c2n1 [US12264155, Compound 70] as the molecule, how does the IC50 read?
**A.** < 5 nM
